Experiments:
CDK9/Cyclin T1 = biological target: T1, CDK9/Cyclin T1 (Homo sapiens, UniProt P50750); test: CDK9 enzyme protocol (LANCE ULight TR-FRET kinase assay); format: biochemical; details: 4 nM CDK9/Cyclin T1, 1000 μM ATP, 100 nM U-light MBP peptide, 30 minutes
T1 construct: purchased Carna Biosciences 04-110
Experimental: CDK9 enzyme activities were measured using LANCE ULight TR-FRET kinase assay reagents (PerkinElmer, Waltham, Mass.). Compounds were directly added in 100% DMSO to white low volume assay plates (Perkin Elmer Proxiplate 6008289) using a Labcyte Echo acoustic dispenser. Assay reagents in serine/threonine kinase assay buffer containing 20 mM HEPES, 10 mM MgCl2, 100 mM Na3VO4, and 0.0075% Triton X-100. were added for final reaction mixture concentrations of 1000 μM ATP, 100 nM U-light MBP peptide (Perkin Elmer TRF0109M) and reaction initiated with 4 nM CDK9/Cyclin T1 (Carna Biosciences 04-110). The kinase reaction was carried out for 30 minutes before addition of stopping buffer to a final of 20 mM EDTA and 0.5 nM of LANCE Ultra Europium anti-phospho-MBP antibody (PerkinElmer TRF0201M) in LANCE detection buffer (PerkinElmer CR97-100). The reaction was equilibrated for 1 hour and the signal read in the Perkin Elmer Envision in TR-FRET mode (excitation at 320 nm and emission at 615/665 nm).

H929 cells = test: Cell viability assay in H929 cells (Cell TiterGlo); format: cell-based; details: Homo sapiens, NCI-H929, 24 hours at 37° C.
Experimental: Cell viability assays were performed using A431 or H929 cells. A431 cells were seeded in 96-well plates at 10,000 cells/well, and after overnight incubation, treated with compounds at 2-times the final concentration to result in a dose response of 3-fold dilutions from 10 μM to 0.0005 μM (50 μL/well, 0.1% final DMSO concentration). H929 cells were seeded in 96-well plates at 10,000 cells/well and treated immediately with compounds as described above. After 24 hours at 37° C., cell viability was measured using Cell TiterGlo reagent (Promega) with a luminescence reader. Alternately, cell viability assays were performed in 384-well format. A431 cells were seeded in 384-well plates at 2500 cells/well and, after overnight incubation, treated with compounds in a dose response of 3-fold dilutions from 10 μM to 0.0005 μM (25 nL/well, 0.1% final DMSO concentration). For the H929 viability assay, 25 nL/well of the compounds was dispensed into 384-well plates in a dose response as described above and cells were immediately seeded in 384-well plates at 2500 cells/well. After 24 hours at 37° C., cell viability was measured using Cell TiterGlo reagent (Promega) with a luminescence reader.

T1 sequence (P50750 whole entry): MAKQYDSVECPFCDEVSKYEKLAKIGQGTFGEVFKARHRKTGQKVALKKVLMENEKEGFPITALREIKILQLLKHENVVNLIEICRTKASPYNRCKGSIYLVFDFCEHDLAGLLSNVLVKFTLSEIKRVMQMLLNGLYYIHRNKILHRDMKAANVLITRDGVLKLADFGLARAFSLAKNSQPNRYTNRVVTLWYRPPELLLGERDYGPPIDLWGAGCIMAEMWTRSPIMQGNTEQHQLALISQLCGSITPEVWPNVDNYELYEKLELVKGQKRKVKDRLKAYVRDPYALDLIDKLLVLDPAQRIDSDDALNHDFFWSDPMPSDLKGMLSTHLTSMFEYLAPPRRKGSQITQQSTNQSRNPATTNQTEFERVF
T1 sequence (O60563 whole entry partner): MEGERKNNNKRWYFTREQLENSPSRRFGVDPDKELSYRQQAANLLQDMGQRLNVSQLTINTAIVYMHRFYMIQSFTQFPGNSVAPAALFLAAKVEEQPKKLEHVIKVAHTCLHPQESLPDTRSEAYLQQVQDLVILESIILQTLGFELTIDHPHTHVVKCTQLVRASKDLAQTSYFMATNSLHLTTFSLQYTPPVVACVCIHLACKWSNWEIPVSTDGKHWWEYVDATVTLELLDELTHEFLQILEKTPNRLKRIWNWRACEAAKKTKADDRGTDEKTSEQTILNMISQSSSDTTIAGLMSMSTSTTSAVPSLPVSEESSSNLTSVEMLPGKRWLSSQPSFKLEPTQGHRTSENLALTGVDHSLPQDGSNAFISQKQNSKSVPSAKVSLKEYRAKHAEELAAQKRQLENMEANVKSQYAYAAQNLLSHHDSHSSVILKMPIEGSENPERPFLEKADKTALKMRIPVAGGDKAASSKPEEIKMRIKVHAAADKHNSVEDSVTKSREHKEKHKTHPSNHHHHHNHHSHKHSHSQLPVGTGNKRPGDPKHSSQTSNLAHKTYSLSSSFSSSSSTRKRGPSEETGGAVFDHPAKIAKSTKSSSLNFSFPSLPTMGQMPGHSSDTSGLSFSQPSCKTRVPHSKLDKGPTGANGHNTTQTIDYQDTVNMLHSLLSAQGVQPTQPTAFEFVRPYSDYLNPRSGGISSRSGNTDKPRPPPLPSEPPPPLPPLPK

| SMILES | IC50 (CDK9/Cyclin T1) [nM] | EC50 (H929 cells) [nM] |
| --- | --- | --- |
| COc1ccc(F)cc1-c1ncnc2[nH]c(C3=CCN(Cc4cccc(F)c4)CC3)cc12 [Example 35, 6-[1-(3-fluorobenzyl)-1,2,3,6-tetrahydropyridin-4-yl]-4-(5-fluoro-2-methoxyphenyl)-7H-pyrrolo[2,3-d]pyrimidine] | 150 | 930 |
| COc1ccc(F)cc1-c1ncnc2[nH]c(C3=CCN(Cc4cc(F)cc(F)c4)CC3)cc12 [Example 36, 6-[1-(3,5-difluorobenzyl)-1,2,3,6-tetrahydropyridin-4-yl]-4-(5-fluoro-2-methoxyphenyl)-7H-pyrrolo[2,3-d]pyrimidine] | 170 | 1000 |
| COc1ccc(F)cc1-c1ncnc2[nH]c(C3=CCC(F)(F)CC3)cc12 [Example 61, 6-(4,4-difluorocyclohex-1-en-1-yl)-4-(5-fluoro-2-methoxyphenyl)-7H-pyrrolo[2,3-d]pyrimidine] | 62 | 1400 |
| COc1ccc(F)cc1-c1ncnc2[nH]c(C3=CCC(N[C@H](C(=O)O)C4CCCCC4)CC3)cc12 (stereo partly drawn) [Example 77, (2S)-cyclohexyl({4-[4-(5-fluoro-2-methoxyphenyl)-7H-pyrrolo[2,3-d]pyrimidin-6-yl]cyclohex-3-en-1-yl}amino)acetic acid] | 290 | 600 |
| CS(=O)(=O)N1CC=C(c2cc3c(-c4cc(NCc5cccc(C#N)c5)ccc4F)ncnc3[nH]2)CC1 [Example 31, 3-{[(4-fluoro-3-{6-[1-(methylsulfonyl)-1,2,3,6-tetrahydropyridin-4-yl]-7H-pyrrolo[2,3-d]pyrimidin-4-yl}phenyl)amino]methyl}benzonitrile] | 110 | 160 |
| CS(=O)(=O)N1CC=C(c2cc3c(-c4cc(NCc5ccccc5)ccc4F)ncnc3[nH]2)CC1 [Example 29, N-benzyl-4-fluoro-3-{6-[1-(methylsulfonyl)-1,2,3,6-tetrahydropyridin-4-yl]-7H-pyrrolo[2,3-d]pyrimidin-4-yl}aniline] | 130 | 290 |
| COc1ccc(F)cc1-c1ncnc2[nH]c(C3=CCC(N[C@H](C(=O)O)C(C)(C)C)CC3)cc12 (stereo partly drawn) [Example 83, N-{4-[4-(5-fluoro-2-methoxyphenyl)-7H-pyrrolo[2,3-d]pyrimidin-6-yl]cyclohex-3-en-1-yl}-3-methyl-L-valine] | 320 | 520 |
| COc1ccc(F)cc1-c1ncnc2[nH]c(C3=CCN(S(=O)(=O)C(C)C)CC3)cc12 [Example 10, 4-(5-fluoro-2-methoxyphenyl)-6-[1-(propan-2-ylsulfonyl)-1,2,3,6-tetrahydropyridin-4-yl]-7H-pyrrolo[2,3-d]pyrimidine] | 160 | 550 |
| COc1ccc(F)cc1-c1ncnc2[nH]c(C3=CCN(Cc4ccccn4)CC3)cc12 [Example 26, 4-(5-fluoro-2-methoxyphenyl)-6-[1-(pyridin-2-ylmethyl)-1,2,3,6-tetrahydropyridin-4-yl]-7H-pyrrolo[2,3-d]pyrimidine] | 190 | 610 |
| COc1ccc(F)cc1-c1ncnc2[nH]c(C3=CCN(CC4CCCO4)CC3)cc12 (centres unmarked) [Example 24, 4-(5-fluoro-2-methoxyphenyl)-6-[1-(tetrahydrofuran-2-ylmethyl)-1,2,3,6-tetrahydropyridin-4-yl]-7H-pyrrolo[2,3-d]pyrimidine] | 100 | 250 |
| COc1ccc(F)cc1-c1ncnc2[nH]c(C3=CCOCC3)cc12 [Example 65, 6-(3,6-dihydro-2H-pyran-4-yl)-4-(5-fluoro-2-methoxyphenyl)-7H-pyrrolo[2,3-d]pyrimidine] | 69 | 1000 |

Other lines, results leading:

| IC50 (CDK9/Cyclin T1) [nM] | EC50 (H929 cells) [nM] | SMILES |
| --- | --- | --- |
| 19 | 690 | COc1ccc(F)cc1-c1ncnc2[nH]c(C3=CCN(S(=O)(=O)C4CC4)CC3)cc12 [Example 8, 6-[1-(cyclopropylsulfonyl)-1,2,3,6-tetrahydropyridin-4-yl]-4-(5-fluoro-2-methoxyphenyl)-7H-pyrrolo[2,3-d]pyrimidine] |
| 70 | 150 | COc1ccc(F)cc1-c1ncnc2[nH]c(C3=CCN(C(=O)[C@H]4CC[C@H](C(=O)OC)CC4)CC3)cc12 [Example 73, methyl trans-4-({4-[4-(5-fluoro-2-methoxyphenyl)-7H-pyrrolo[2,3-d]pyrimidin-6-yl]-3,6-dihydropyridin-1(2H)-yl}carbonyl)cyclohexanecarboxylate] |
| 130 | 230 | CS(=O)(=O)N1CC=C(c2cc3c(-c4cc(NCc5ccc(C#N)cc5)ccc4F)ncnc3[nH]2)CC1 [Example 30, 4-{[(4-fluoro-3-{6-[1-(methylsulfonyl)-1,2,3,6-tetrahydropyridin-4-yl]-7H-pyrrolo[2,3-d]pyrimidin-4-yl}phenyl)amino]methyl}benzonitrile] |
| 68 | 3500 | CN(C)C(=O)N1CC=C(c2cc3c(-c4cccc(F)c4F)ncnc3[nH]2)CC1 [Example 76, 4-[4-(2,3-difluorophenyl)-7H-pyrrolo[2,3-d]pyrimidin-6-yl]-N,N-dimethyl-3,6-dihydropyridine-1(2H)-carboxamide] |
| 16 | 600 | COc1ccc(F)cc1-c1ncnc2[nH]c(C3=CCN(C(=O)N(C)C)CC3)cc12 [Example 75, 4-[4-(5-fluoro-2-methoxyphenyl)-7H-pyrrolo[2,3-d]pyrimidin-6-yl]-N,N-dimethyl-3,6-dihydropyridine-1(2H)-carboxamide] |
| 88 | 180 | C=CCNC(=O)N1CC=C(c2cc3c(-c4cc(F)ccc4OC)ncnc3[nH]2)CC1 [Example 19, 4-[4-(5-fluoro-2-methoxyphenyl)-7H-pyrrolo[2,3-d]pyrimidin-6-yl]-N-(prop-2-en-1-yl)-3,6-dihydropyridine-1(2H)-carboxamide] |
| 180 | > 10000 | COc1ccc(Cl)cc1-c1ncnc2[nH]c(C3=CCN(S(C)(=O)=O)CC3)cc12 [Example 45, 4-(5-chloro-2-methoxyphenyl)-6-[1-(methylsulfonyl)-1,2,3,6-tetrahydropyridin-4-yl]-7H-pyrrolo[2,3-d]pyrimidine] |
| 51 | 329 | CS(=O)(=O)N1CC=C(c2cc3c(-c4cc(NCc5ccncc5)ccc4F)ncnc3[nH]2)CC1 [Example 37, 4-fluoro-3-{6-[1-(methylsulfonyl)-1,2,3,6-tetrahydropyridin-4-yl]-7H-pyrrolo[2,3-d]pyrimidin-4-yl}-N-(pyridin-4-ylmethyl)aniline] |
| 43 | 310 | COc1ccc(F)cc1-c1ncnc2[nH]c(C3=CCN(C(=O)C4CC4)CC3)cc12 [Example 11, cyclopropyl{4-[4-(5-fluoro-2-methoxyphenyl)-7H-pyrrolo[2,3-d]pyrimidin-6-yl]-3,6-dihydropyridin-1(2H)-yl}methanone] |
| 110 | 5900 | COc1ccc(F)cc1-c1ncnc2[nH]c(C3=CCN(C(=O)[C@H]4CC[C@H](C(=O)O)CC4)CC3)cc12 [Example 74, trans-4-({4-[4-(5-fluoro-2-methoxyphenyl)-7H-pyrrolo[2,3-d]pyrimidin-6-yl]-3,6-dihydropyridin-1(2H)-yl}carbonyl)cyclohexanecarboxylic acid] |
| 150 | 1100 | CCN1CCC(C(=O)N2CC=C(c3cc4c(-c5cc(F)ccc5OC)ncnc4[nH]3)CC2)C1 (centres unmarked) [Example 16, (1-ethylpyrrolidin-3-yl){4-[4-(5-fluoro-2-methoxyphenyl)-7H-pyrrolo[2,3-d]pyrimidin-6-yl]-3,6-dihydropyridin-1(2H)-yl}methanone] |
| 42 | 410 | COc1ccc(F)cc1-c1ncnc2[nH]c(C3=CCN(C(C)=O)CC3)cc12 [Example 6, 1-{4-[4-(5-fluoro-2-methoxyphenyl)-7H-pyrrolo[2,3-d]pyrimidin-6-yl]-3,6-dihydropyridin-1(2H)-yl}ethanone] |
| 69 | 840 | COc1ccc(F)cc1-c1ncnc2[nH]c(C3=CCN(C(=O)C4CC(=O)N4)CC3)cc12 (centres unmarked) [Example 13, 4-({4-[4-(5-fluoro-2-methoxyphenyl)-7H-pyrrolo[2,3-d]pyrimidin-6-yl]-3,6-dihydropyridin-1(2H)-yl}carbonyl)azetidin-2-one] |
| 86 | 210 | COc1ccc(F)cc1-c1ncnc2[nH]c(C3=CCN(C(=O)C4CCCOC4)CC3)cc12 (centres unmarked) [Example 15, 4-[4-(5-fluoro-2-methoxyphenyl)-7H-pyrrolo[2,3-d]pyrimidin-6-yl]-3,6-dihydropyridin-1(2H)-yl(tetrahydro-2H-pyran-3-yl)methanone] |

Source: patent publication US9346813B2, “Substituted pyrrolo[2,3-d]pyrimindines as CDK9 kinase inhibitors” (AbbVie Inc., priority 2014, dated 2016)
